Test: recombinant barcode read abundance after kanamycin selection (control-corrected) (log10(CPM+1)); higher = more efficient recombination; sequences stand for … in AGTGCAGAGAAAATCGGCCAGTTTTCTCTGCCTGCAGTCCGCATGCCGT…AGATTTATGCAGCGGACTGCCTTTCTCCCAAAGTGATAAACCGGACAGTATCATGGACCGGTTTTCCCGGTAATCCGTATTTGCAAGGTTGGTTTCACT; site = the 11-nt target
Method in brief: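 Recombination efficiency draws on barcodes counted at recombinant junctions in a pooled E. coli screen of targets paired with IS621 bridge RNA target-binding loops. The counts were converted to counts per million, averaged and corrected against the chloramphenicol/ampicillin LB agar control, then reported as log10(CPM+1). Selection plates held chloramphenicol/ampicillin/kanamycin with 0.1 mM IPTG, with two replicates per condition.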
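Further: IS621 recombinase and bridge RNA in Escherichia coli cells.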

CATCGATCTTGGGTTCTAACCTGTTGCCT (site CATCGATCTAG)
recombinant barcode read abundance (log10): 0.558

CATCGATCTTGGGTTCTAACCTGTTGCCT (site CATCTATCTAG)
recombinant barcode read abundance (log10): 0

CATCGCACTTGGGTTCTAACCTGTTGCCT (site CATCGCACTAG)
recombinant barcode read abundance (log10): 0.0933

CATCGCACTTGGGTTCTAACCTGTTGCCT (site CCTCGCACTAG)
recombinant barcode read abundance (log10): 0.289

CATCGCACTTGGGTTCTAACCTGTTGCCT (site CGTCGCACTAG)
recombinant barcode read abundance (log10): 0.153

CATCGCACTTGGGTTCTAACCTGTTGCCT (site CTTCGCACTAG)
recombinant barcode read abundance (log10): 0.184

CATCGGACTTGGGTTCTAACCTGTTGCAG (site ACATAAGCTAG)
recombinant barcode read abundance (log10): 0.139

CATCGGACTTGGGTTCTAACCTGTTGCAG (site CATCGGACTCT)
recombinant barcode read abundance (log10): 1.48

CATCGTACTTGGGTTCTAACCTGTTGCAT (site CATCGTACTAT)
recombinant barcode read abundance (log10): 0.00546

CATCGTACTTGGGTTCTAACCTGTTGCAT (site CCTCGGACTAT)
recombinant barcode read abundance (log10): 0.0241

CATCTACCTTGGGTTCTAACCTGTTGCGG (site CATCTACCTCC)
recombinant barcode read abundance (log10): 1.39

CATCTACCTTGGGTTCTAACCTGTTGCGG (site TTGGATACTTG)
recombinant barcode read abundance (log10): 0.332

CATCTATCTTGGGTTCTAACCTGTTGCCT (site CATCGATCTAG)
recombinant barcode read abundance (log10): 0.353

CATCTATCTTGGGTTCTAACCTGTTGCCT (site CATCTATCTAG)
recombinant barcode read abundance (log10): 0.624

CATGACCCTTGGGTTCTAACCTGTTGCCT (site CAAGACCCTAG)
recombinant barcode read abundance (log10): 0.993

CATGACCCTTGGGTTCTAACCTGTTGCCT (site CACGACCCTAG)
recombinant barcode read abundance (log10): 0.774

CATGACCCTTGGGTTCTAACCTGTTGCCT (site CAGGACCCTAG)
recombinant barcode read abundance (log10): 0.85

CATGACCCTTGGGTTCTAACCTGTTGCCT (site CATGACCCTAG)
recombinant barcode read abundance (log10): 1.67

CATGATACTTGGGTTCTAACCTGTTGCCT (site ATCTTGTCTCC)
recombinant barcode read abundance (log10): 0.0865

CATGATACTTGGGTTCTAACCTGTTGCCT (site CATGATACTAG)
recombinant barcode read abundance (log10): 0.922

CATGCCTCTTGGGTTCTAACCTGTTGCCG (site CATGCCTCTCG)
recombinant barcode read abundance (log10): 2.17

CATGCCTCTTGGGTTCTAACCTGTTGCCG (site GCAAGTCCTAC)
recombinant barcode read abundance (log10): 0.227

CATGCGACTTGGGTTCTAACCTGTTGCGT (site AGCATCCCTCA)
recombinant barcode read abundance (log10): 0.234

CATGCGACTTGGGTTCTAACCTGTTGCGT (site CATGCGACTAC)
recombinant barcode read abundance (log10): 0.472

CATGCTACTTGGGTTCTAACCTGTTGCGT (site CATGCTACTAC)
recombinant barcode read abundance (log10): 0.41

CATGCTACTTGGGTTCTAACCTGTTGCGT (site GATTCTACTAC)
recombinant barcode read abundance (log10): 0.0988

CATGTACCTTGGGTTCTAACCTGTTGCCT (site AATGTACCTAG)
recombinant barcode read abundance (log10): 0.0837

CATGTACCTTGGGTTCTAACCTGTTGCCT (site CATGTACCTAG)
recombinant barcode read abundance (log10): 2.02

CATGTACCTTGGGTTCTAACCTGTTGCCT (site GATGTACCTAG)
recombinant barcode read abundance (log10): 0.145

CATGTACCTTGGGTTCTAACCTGTTGCCT (site TATGTACCTAG)
recombinant barcode read abundance (log10): 0.0813

CATTAGACTTGGGTTCTAACCTGTTGCCT (site AATTAGACTAG)
recombinant barcode read abundance (log10): 0.356

CATTAGACTTGGGTTCTAACCTGTTGCCT (site CATTAGACTAG)
recombinant barcode read abundance (log10): 0.423

CATTAGACTTGGGTTCTAACCTGTTGCCT (site GATTAGACTAG)
recombinant barcode read abundance (log10): 0.195

CATTAGACTTGGGTTCTAACCTGTTGCCT (site TATTAGACTAG)
recombinant barcode read abundance (log10): 0.08

CATTCAACTTGGGTTCTAACCTGTTGCCT (site CATTCAACTAG)
recombinant barcode read abundance (log10): 0.133

CATTCAACTTGGGTTCTAACCTGTTGCCT (site CATTCAACTCG)
recombinant barcode read abundance (log10): 0.115

CATTTCACTTGGGTTCTAACCTGTTGCCT (site CATTTCACTAG)
recombinant barcode read abundance (log10): 0.379

CATTTCACTTGGGTTCTAACCTGTTGCCT (site GCCCATGCTCC)
recombinant barcode read abundance (log10): 0.0522

CATTTCCCTTGGGTTCTAACCTGTTGCTT (site CATTTCCCTAA)
recombinant barcode read abundance (log10): 0.122

CATTTCCCTTGGGTTCTAACCTGTTGCTT (site CATTTCCCTAG)
recombinant barcode read abundance (log10): 0.246

CATTTCTCTTGGGTTCTAACCTGTTGCCT (site AATTTCTCTAG)
recombinant barcode read abundance (log10): 0.0363

CATTTCTCTTGGGTTCTAACCTGTTGCCT (site CATTTCTCTAG)
recombinant barcode read abundance (log10): 0.341

CATTTCTCTTGGGTTCTAACCTGTTGCCT (site GATTTCTCTAG)
recombinant barcode read abundance (log10): 0.116

CATTTCTCTTGGGTTCTAACCTGTTGCCT (site TATTTCTCTAG)
recombinant barcode read abundance (log10): 0.00749

CCAAAGACTTGGGTTCTAACCTGTTGCTT (site CCAAAGACTAA)
recombinant barcode read abundance (log10): 0.653

CCAAAGACTTGGGTTCTAACCTGTTGCTT (site GGGTCACCTCC)
recombinant barcode read abundance (log10): 0

CCACACTCTTGGGTTCTAACCTGTTGCCT (site CAACACTCTAG)
recombinant barcode read abundance (log10): 0.0891

CCACACTCTTGGGTTCTAACCTGTTGCCT (site CCACACTCTAG)
recombinant barcode read abundance (log10): 1.27

CCACACTCTTGGGTTCTAACCTGTTGCCT (site CGACACTCTAG)
recombinant barcode read abundance (log10): 0.0247

CCACACTCTTGGGTTCTAACCTGTTGCCT (site CTACACTCTAG)
recombinant barcode read abundance (log10): 0.171

CCACATCCTTGGGTTCTAACCTGTTGCCT (site CCACATCCTAG)
recombinant barcode read abundance (log10): 0.289

CCACATCCTTGGGTTCTAACCTGTTGCCT (site GCACACCCTAG)
recombinant barcode read abundance (log10): 0.109

CCACCGTCTTGGGTTCTAACCTGTTGCCT (site CCACAGTCTAG)
recombinant barcode read abundance (log10): 0.171

CCACCGTCTTGGGTTCTAACCTGTTGCCT (site CCACCGTCTAG)
recombinant barcode read abundance (log10): 0.156

CCACCGTCTTGGGTTCTAACCTGTTGCCT (site CCACGGTCTAG)
recombinant barcode read abundance (log10): 0.177

CCACCGTCTTGGGTTCTAACCTGTTGCCT (site CCACTGTCTAG)
recombinant barcode read abundance (log10): 0.175

CCACGGTCTTGGGTTCTAACCTGTTGCCT (site CCACAGTCTAG)
recombinant barcode read abundance (log10): 0.161

CCACGGTCTTGGGTTCTAACCTGTTGCCT (site CCACCGTCTAG)
recombinant barcode read abundance (log10): 0.0249

CCACGGTCTTGGGTTCTAACCTGTTGCCT (site CCACGGTCTAG)
recombinant barcode read abundance (log10): 1.1

CCACGGTCTTGGGTTCTAACCTGTTGCCT (site CCACTGTCTAG)
recombinant barcode read abundance (log10): 0.033

CCAGAAGCTTGGGTTCTAACCTGTTGCCT (site CCAGAAGCTAG)
recombinant barcode read abundance (log10): 0.179

CCAGAAGCTTGGGTTCTAACCTGTTGCCT (site CCAGCAGCTAG)
recombinant barcode read abundance (log10): 0.222

CCAGAAGCTTGGGTTCTAACCTGTTGCCT (site CCAGGAGCTAG)
recombinant barcode read abundance (log10): 0.407

CCAGAAGCTTGGGTTCTAACCTGTTGCCT (site CCAGTAGCTAG)
recombinant barcode read abundance (log10): 0.0645

CCAGGACCTTGGGTTCTAACCTGTTGCCT (site CCAGGACCTAG)
recombinant barcode read abundance (log10): 2.2

CCAGGACCTTGGGTTCTAACCTGTTGCCT (site CGAGGACCTAG)
recombinant barcode read abundance (log10): 0.291

CCAGGAGCTTGGGTTCTAACCTGTTGCCT (site CCAGAAGCTAG)
recombinant barcode read abundance (log10): 0.338

CCAGGAGCTTGGGTTCTAACCTGTTGCCT (site CCAGCAGCTAG)
recombinant barcode read abundance (log10): 0.103

CCAGGAGCTTGGGTTCTAACCTGTTGCCT (site CCAGGAGCTAG)
recombinant barcode read abundance (log10): 0.545

CCAGGAGCTTGGGTTCTAACCTGTTGCCT (site CCAGTAGCTAG)
recombinant barcode read abundance (log10): 0.109

CCAGGTACTTGGGTTCTAACCTGTTGCCT (site ACAGGTACTAG)
recombinant barcode read abundance (log10): 0.272

CCAGGTACTTGGGTTCTAACCTGTTGCCT (site CCAGGTACTAG)
recombinant barcode read abundance (log10): 0.701

CCAGGTACTTGGGTTCTAACCTGTTGCCT (site GCAGGTACTAG)
recombinant barcode read abundance (log10): 0.117

CCAGGTACTTGGGTTCTAACCTGTTGCCT (site TCAGGTACTAG)
recombinant barcode read abundance (log10): 0.182

CCAGGTCCTTGGGTTCTAACCTGTTGCAT (site CCAGGTCCTAC)
recombinant barcode read abundance (log10): 0.111

CCAGGTCCTTGGGTTCTAACCTGTTGCAT (site CCAGGTCCTAT)
recombinant barcode read abundance (log10): 2.25

CCAGGTGCTTGGGTTCTAACCTGTTGCGG (site CCAGGTGCTCC)
recombinant barcode read abundance (log10): 1.62

CCAGGTGCTTGGGTTCTAACCTGTTGCGG (site GGCTTGACTAG)
recombinant barcode read abundance (log10): 0.0921

CCAGTAACTTGGGTTCTAACCTGTTGCCT (site CCAGTAACTAG)
recombinant barcode read abundance (log10): 0.659

CCAGTAACTTGGGTTCTAACCTGTTGCCT (site CCAGTCACTAG)
recombinant barcode read abundance (log10): 0.137

CCAGTAACTTGGGTTCTAACCTGTTGCCT (site CCAGTGACTAG)
recombinant barcode read abundance (log10): 0.082

CCAGTAACTTGGGTTCTAACCTGTTGCCT (site CCAGTTACTAG)
recombinant barcode read abundance (log10): 0.0883

CCAGTAGCTTGGGTTCTAACCTGTTGCCT (site CCAGAAGCTAG)
recombinant barcode read abundance (log10): 0.382

CCAGTAGCTTGGGTTCTAACCTGTTGCCT (site CCAGCAGCTAG)
recombinant barcode read abundance (log10): 0.161

CCAGTAGCTTGGGTTCTAACCTGTTGCCT (site CCAGGAGCTAG)
recombinant barcode read abundance (log10): 0.193

CCAGTAGCTTGGGTTCTAACCTGTTGCCT (site CCAGTAGCTAG)
recombinant barcode read abundance (log10): 0.52
